Source: paper doi:10.64898/2026.08.16.745104v1, “C. elegans Dicer stacks with the RIG-I-like receptor DRH-1 to cleave dsRNA” (biorxiv, 2026)

Columns and labels:
[1] = molecular target: T1, DCR-1 in the antiviral complex (AVC; DCR-1•DRH-1•RDE-4) (Caenorhabditis elegans, UniProt P34529); assay: cryo-EM structure, […] Å; type: binding; details: helicase nucleotide pocket between Hel1 and Hel2; Mg2+; sample incubated with 5 mM ATP and 3'ovr 106-dsRNA, pH 7.5, 20 °C
T1 construct: three proteins co-expressed in Sf9 cells (baculovirus), StrepTrap and Superose 6 purified; ADP in DCR-1 helicase domain (Hel1/Hel2); with Dicer Related Helicase

[2] = molecular target: T2, DRH-1 in the antiviral complex (AVC; DCR-1•DRH-1•RDE-4) (Caenorhabditis elegans, UniProt G5EDI8); assay: cryo-EM structure, […] Å; details: ATP-binding pockets of both DRH-1 helicases (DRH-1 and DRH-1*); sample incubated with 5 mM ATP and 3'ovr 106-dsRNA, pH 7.5, 20 °C
T2 construct: three proteins co-expressed in Sf9 cells (baculovirus), StrepTrap and Superose 6 purified; two stacked DRH-1 helicases (DRH-1 and DRH-1*, the latter only helicase and CTD resolved); with Endoribonuclease dcr-1
T2 sequence (G5EDI8 1-1037): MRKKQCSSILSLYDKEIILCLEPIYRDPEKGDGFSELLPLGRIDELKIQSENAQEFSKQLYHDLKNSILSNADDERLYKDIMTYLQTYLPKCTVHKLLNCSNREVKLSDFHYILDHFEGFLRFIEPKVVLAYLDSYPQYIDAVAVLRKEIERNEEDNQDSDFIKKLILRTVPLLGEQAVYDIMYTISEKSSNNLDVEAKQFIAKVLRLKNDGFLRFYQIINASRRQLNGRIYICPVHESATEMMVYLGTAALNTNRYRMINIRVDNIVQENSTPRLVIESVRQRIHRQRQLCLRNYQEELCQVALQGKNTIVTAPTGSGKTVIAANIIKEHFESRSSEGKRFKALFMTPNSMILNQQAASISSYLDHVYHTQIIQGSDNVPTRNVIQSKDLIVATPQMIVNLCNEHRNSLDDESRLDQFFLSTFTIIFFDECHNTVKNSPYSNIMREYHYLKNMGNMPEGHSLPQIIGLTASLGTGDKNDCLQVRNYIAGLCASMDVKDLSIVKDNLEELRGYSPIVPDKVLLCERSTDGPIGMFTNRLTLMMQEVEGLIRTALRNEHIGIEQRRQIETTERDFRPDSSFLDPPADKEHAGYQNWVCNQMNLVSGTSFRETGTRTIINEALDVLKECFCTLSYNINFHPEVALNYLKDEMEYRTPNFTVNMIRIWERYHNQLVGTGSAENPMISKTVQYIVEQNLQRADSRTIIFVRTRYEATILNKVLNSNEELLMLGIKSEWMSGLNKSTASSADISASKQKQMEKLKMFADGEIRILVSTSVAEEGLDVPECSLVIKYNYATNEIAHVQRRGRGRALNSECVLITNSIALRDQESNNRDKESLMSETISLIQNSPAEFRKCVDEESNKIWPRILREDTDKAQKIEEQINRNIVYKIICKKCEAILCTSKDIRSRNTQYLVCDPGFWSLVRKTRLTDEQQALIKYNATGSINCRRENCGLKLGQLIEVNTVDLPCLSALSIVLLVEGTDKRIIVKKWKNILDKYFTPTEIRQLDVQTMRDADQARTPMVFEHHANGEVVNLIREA
T2 sequence (P34529 whole entry partner): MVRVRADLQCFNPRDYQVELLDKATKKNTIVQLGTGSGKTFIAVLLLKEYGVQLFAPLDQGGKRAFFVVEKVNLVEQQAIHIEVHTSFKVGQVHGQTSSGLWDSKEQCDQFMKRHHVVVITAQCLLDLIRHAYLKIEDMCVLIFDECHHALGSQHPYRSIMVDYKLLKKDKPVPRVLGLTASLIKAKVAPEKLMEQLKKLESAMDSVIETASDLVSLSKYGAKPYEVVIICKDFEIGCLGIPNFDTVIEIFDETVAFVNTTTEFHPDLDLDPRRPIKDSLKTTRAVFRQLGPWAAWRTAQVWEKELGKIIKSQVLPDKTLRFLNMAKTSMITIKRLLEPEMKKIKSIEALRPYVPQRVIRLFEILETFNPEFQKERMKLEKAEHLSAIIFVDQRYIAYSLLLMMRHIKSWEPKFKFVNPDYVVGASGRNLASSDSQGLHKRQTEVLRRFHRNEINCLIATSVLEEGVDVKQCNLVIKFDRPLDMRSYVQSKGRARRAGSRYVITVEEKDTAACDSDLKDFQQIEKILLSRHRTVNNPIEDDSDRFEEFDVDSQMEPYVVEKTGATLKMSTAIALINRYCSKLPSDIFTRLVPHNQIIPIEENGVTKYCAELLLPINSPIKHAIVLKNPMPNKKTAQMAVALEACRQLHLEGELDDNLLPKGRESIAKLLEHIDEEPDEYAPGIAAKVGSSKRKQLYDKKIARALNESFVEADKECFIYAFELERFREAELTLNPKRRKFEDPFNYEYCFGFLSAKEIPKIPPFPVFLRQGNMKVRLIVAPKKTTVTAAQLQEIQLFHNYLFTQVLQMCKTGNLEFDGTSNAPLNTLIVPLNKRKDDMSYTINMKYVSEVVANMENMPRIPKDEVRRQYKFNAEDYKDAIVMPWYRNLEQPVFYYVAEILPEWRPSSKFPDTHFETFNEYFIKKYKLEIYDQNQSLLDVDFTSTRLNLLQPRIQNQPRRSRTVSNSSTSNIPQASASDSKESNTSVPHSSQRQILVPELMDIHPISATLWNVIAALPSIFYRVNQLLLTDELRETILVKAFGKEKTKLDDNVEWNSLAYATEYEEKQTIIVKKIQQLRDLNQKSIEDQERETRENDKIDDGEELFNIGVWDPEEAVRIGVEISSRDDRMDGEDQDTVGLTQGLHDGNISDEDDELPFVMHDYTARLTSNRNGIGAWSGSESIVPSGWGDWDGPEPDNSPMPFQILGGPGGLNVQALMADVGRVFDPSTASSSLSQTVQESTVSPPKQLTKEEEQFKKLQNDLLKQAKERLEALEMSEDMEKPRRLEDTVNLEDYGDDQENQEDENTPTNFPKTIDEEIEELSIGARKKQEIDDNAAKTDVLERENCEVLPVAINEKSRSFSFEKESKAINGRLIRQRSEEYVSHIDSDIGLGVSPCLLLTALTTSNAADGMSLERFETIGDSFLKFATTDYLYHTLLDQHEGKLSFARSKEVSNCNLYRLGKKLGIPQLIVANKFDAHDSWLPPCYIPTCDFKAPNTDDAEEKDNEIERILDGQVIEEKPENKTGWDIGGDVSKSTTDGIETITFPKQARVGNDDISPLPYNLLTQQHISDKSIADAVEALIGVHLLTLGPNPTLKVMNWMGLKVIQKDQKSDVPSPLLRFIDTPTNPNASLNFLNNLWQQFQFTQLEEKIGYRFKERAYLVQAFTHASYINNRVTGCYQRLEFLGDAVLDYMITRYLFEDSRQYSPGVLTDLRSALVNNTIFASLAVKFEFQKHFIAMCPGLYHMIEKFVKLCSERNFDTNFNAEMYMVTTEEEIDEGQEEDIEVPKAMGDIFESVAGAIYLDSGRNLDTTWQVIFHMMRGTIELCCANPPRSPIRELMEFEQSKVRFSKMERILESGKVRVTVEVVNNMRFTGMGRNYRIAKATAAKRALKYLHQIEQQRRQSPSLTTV
T2 sequence (G5EBF5 1-385 partner): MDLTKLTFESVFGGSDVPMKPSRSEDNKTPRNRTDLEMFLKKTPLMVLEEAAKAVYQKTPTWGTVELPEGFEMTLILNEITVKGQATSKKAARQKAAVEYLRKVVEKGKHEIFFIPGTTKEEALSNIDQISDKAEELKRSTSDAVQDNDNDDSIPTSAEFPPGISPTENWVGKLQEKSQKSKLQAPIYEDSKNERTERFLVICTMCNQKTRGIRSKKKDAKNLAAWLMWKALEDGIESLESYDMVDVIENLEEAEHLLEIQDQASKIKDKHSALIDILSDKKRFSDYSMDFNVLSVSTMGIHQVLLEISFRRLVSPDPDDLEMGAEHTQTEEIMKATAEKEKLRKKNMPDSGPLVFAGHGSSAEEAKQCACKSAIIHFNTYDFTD

T1 sequence (P34529 whole entry, the tested form may be a part): as the sequence (P34529 whole entry partner) above
T1 sequence (G5EDI8 1-1037 partner): as the sequence (G5EDI8 1-1037) above
T1 sequence (G5EBF5 1-385 partner): as the sequence (G5EBF5 1-385 partner) above

SMILES: Nc1ncnc2c1ncn2[C@@H]1O[C@H](COP(=O)(O)OP(=O)(O)O)[C@@H](O)[C@H]1O [ADP]
- cryo-EM structure, 3.0 Å [1]: we modeled ADP within the conserved nucleotide-binding pocket of the DCR-1 helicase
- cryo-EM structure, 3.0 Å [2]: ADP was also present in the ATP-binding pockets of both DRH-1 helicases
